Test results from US20250281464A1, “TREATMENT OF PATHOGENIC NEISSERIA SP. INFECTION WITH TRIAZOLE ANTIFUNGAL AGENTS” (Virginia Tech Intellectual Properties, Inc., priority 2022, published 2025).

Legend:
[1] = system: L. johnsonii; assay: MIC against commensal vaginal Lactobacillus strains; format: cell-based, Lactobacillus johnsonii
Description: (§1) N. gonorrhoeae pathogenesis greatly depends on colonization of the reproductive tract. One of the natural barriers of such colonization is an intact healthy microbiome. Species of lactobacilli present in the genitourinary tract play a significant role in hindering colonization by Neisseria(1).
(§2) A healthy vaginal microbiome that is dominated by Lactobacillus spp. is less susceptible to N. gonorrhoeae infection and other sexually transmitted diseases (STDs). […] We tested the activity of azoles against important members of healthy vaginal microbiota that inhibit N. gonorrhoeae colonization.

[2] = system: L. crispatus; assay: as above; format: cell-based, Lactobacillus crispatus; conditions: for MIC: Lactobacillus crispatus
Description: as §1, §2

[3] = system: Bacteroides dorei; assay: MIC against normal gut microbiota; format: cell-based; conditions: Bacteroides dorei (2 strains)
Description: (§3) Disrupting the intestinal microbiota using broad-spectrum antimicrobial therapy increases the susceptibility of hosts to C. difficile colonization.

[4] = system: Enterococcus faecium; assay: MIC against normal gut microbiota; format: cell-based; conditions: Enterococcus faecium (1 strain)
Description: as §3

[5] = system: Bacteroides fragilis; assay: MIC against normal gut microbiota; format: cell-based; conditions: Bacteroides fragilis (4 strains)
Description: as §3

[6] = system: Enterococcus faecalis; assay: MIC against normal gut microbiota; format: cell-based; conditions: Enterococcus faecalis (1 strain)
Description: as §3

[7] = system: Bifidobacterium angulatum; assay: MIC against normal gut microbiota; format: cell-based; conditions: Bifidobacterium angulatum (1 strain)
Description: as §3

MIC ([1]; Lactobacillus johnsonii, L. johnsonii HM-643): > 256 µg/mL
MIC Range ([1]; Table 6, L. johsonii (2 strains)): ≥256 µg/mL
MIC ([2]; L. crispatus HM-103): > 256 µg/mL
MIC ([2]; L. crispatus HM-371): > 256 µg/mL
MIC ([2]; L. crispatus HM-638): > 256 µg/mL
MIC Range ([2]; Table 6, L. crispatus (3 strains)): ≥256 µg/mL
SMILES: C[C@@H](c1nc(-c2ccc(C#N)cc2)cs1)[C@](O)(Cn1cncn1)c1cc(F)ccc1F [Isavuconazole]
MIC Range [3]: >256 µg/mL
MIC Range [4]: >256 µg/mL
MIC Range [5]: >256 µg/mL
MIC Range [6]: >256 µg/mL
MIC Range [7]: >256 µg/mL
